# Laboratory results published in ChEMBL document CHEMBL1201862, “PubChem BioAssay data set” (2004).
#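 Grown in 96-well plates, cells were treated for 48 hours with each compound at five concentrations. Insufficient inhibition: endpoint recorded as highest concentration tested. Abbreviation: GI50, concentration required for 50% inhibition of growth.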 Calls of active or inactive are those of the source. Rule as the data show it: active = GI50 up to about 1.1 µM and inactive = higher.
# Columns and labels:
# Assay in all cases: NCI tumour cell line growth inhibition, 48 h
# Malme-3M = test system: Malme-3M
# HOP-62 = test system: HOP-62
# Hs-578T = test system: Hs-578T
# 786-0 = test system: 786-0
# MCF7 = test system: MCF7
# UACC-257 = test system: UACC-257
# U-251 = test system: U-251
# RXF 393 = test system: RXF 393
# NCI-H226 = test system: NCI-H226
# MDA-MB-231 = test system: MDA-MB-231
# SR = test system: SR
# SN12C = test system: SN12C
# A549 = test system: A549
# KM12 = test system: KM12
# A498 = test system: A498
# NCI-H460 = test system: NCI-H460
# OVCAR-5 = test system: OVCAR-5
# SK-MEL-5 = test system: SK-MEL-5
# LOX IMVI = test system: LOX IMVI
# SNB-75 = test system: SNB-75
Structure (SMILES),GI50 (Malme-3M),GI50 (HOP-62),GI50 (Hs-578T),GI50 (786-0),GI50 (MCF7),GI50 (UACC-257),GI50 (U-251),GI50 (RXF 393),GI50 (NCI-H226),GI50 (MDA-MB-231),GI50 (SR),GI50 (SN12C),GI50 (A549),GI50 (KM12),GI50 (A498),GI50 (NCI-H460),GI50 (OVCAR-5),GI50 (SK-MEL-5),GI50 (LOX IMVI),GI50 (SNB-75)
O=C(/C=C/c1ccco1)c1cccc(C(=O)/C=C/c2ccco2)n1,25.7 µM (inactive),17.1 µM (inactive),4.4 µM (inactive),3.4 µM (inactive),0.662 µM (active),60.7 µM (inactive),5.22 µM (inactive),25.5 µM (inactive),> 100 µM (inactive),40.1 µM (inactive),1.37 µM (inactive),12.6 µM (inactive),27.1 µM (inactive),3.98 µM (inactive),> 72.1 µM (inactive),42.4 µM (inactive),26.1 µM (inactive),48.6 µM (inactive),1.78 µM (inactive),45.5 µM (inactive)
CC1(C)N=C(N)N=C(N)N1CCCCc1ccccc1,0.282 µM (active),1.18 µM (inactive),3.21 µM (inactive),< 0.0305 µM (active),0.838 µM (active),1.63 µM (inactive),0.209 µM (active),0.422 µM (active),6.47 µM (inactive),> 64.9 µM (inactive),< 0.0334 µM (active),0.82 µM (active),0.113 µM (active),0.689 µM (active),2.08 µM (inactive),0.151 µM (active),1.99 µM (inactive),0.59 µM (active),0.149 µM (active),15.4 µM (inactive)
O=[N+]([O-])C(=C(Cl)Cl)C(Cl)=C(Cl)Cl,0.0454 µM (active),8.22 µM (inactive),0.485 µM (active),0.0895 µM (active),0.114 µM (active),0.166 µM (active),2.81 µM (inactive),0.0391 µM (active),0.834 µM (active),0.505 µM (active),0.13 µM (active),0.497 µM (active),6.44 µM (inactive),1.85 µM (inactive),3.63 µM (inactive),1.96 µM (inactive),2.02 µM (inactive),0.52 µM (active),< 0.0117 µM (active),1.39 µM (inactive)
COC(=O)/C=C(\C)CC/C=C(\C)CCC(O)C(C)(C)O (stereo not given),17.5 µM (inactive),21.8 µM (inactive),28.6 µM (inactive),19.4 µM (inactive),37 µM (inactive),36.4 µM (inactive),28.2 µM (inactive),26.3 µM (inactive),28.8 µM (inactive),> 100 µM (inactive),17.8 µM (inactive),19.3 µM (inactive),34.8 µM (inactive),13.9 µM (inactive),33 µM (inactive),19.8 µM (inactive),60.4 µM (inactive),16.6 µM (inactive),16.2 µM (inactive),17.1 µM (inactive)
CCc1nc(N)nc(N)c1-c1ccc(Cl)cc1 [PYRIMETHAMINE],18.2 µM (inactive),13.4 µM (inactive),> 58.2 µM (inactive),4.59 µM (inactive),11.1 µM (inactive),12.5 µM (inactive),9.75 µM (inactive),> 76.4 µM (inactive),42.6 µM (inactive),9.25 µM (inactive),4.24 µM (inactive),3.33 µM (inactive),1.47 µM (inactive),11.6 µM (inactive),13.3 µM (inactive),2.79 µM (inactive),> 60 µM (inactive),2.48 µM (inactive),6.19 µM (inactive),44.9 µM (inactive)
CC[N+]1(C)CCC(O)(/C=C/c2ccccc2)C(C(=O)/C=C/c2ccccc2)C1 (stereo not given),15 µM (inactive),19.6 µM (inactive),28.4 µM (inactive),4.02 µM (inactive),3.05 µM (inactive),10.2 µM (inactive),8 µM (inactive),7.62 µM (inactive),14.7 µM (inactive),10.8 µM (inactive),2.34 µM (inactive),7.23 µM (inactive),20.3 µM (inactive),3.71 µM (inactive),21.1 µM (inactive),15 µM (inactive),18.1 µM (inactive),16.6 µM (inactive),2.79 µM (inactive),14.7 µM (inactive)
COc1ccc(/C=C2\C[C@H]3[C@@H]4CCC5=C[C@@H](N6CCCC6)CC[C@]5(C)[C@H]4CC[C@]3(C)[C@H]2O)cc1,2.61 µM (inactive),1.66 µM (inactive),2.69 µM (inactive),1.53 µM (inactive),1.93 µM (inactive),1.4 µM (inactive),2.77 µM (inactive),1.52 µM (inactive),3.13 µM (inactive),1.96 µM (inactive),1.01 µM (active),4.8 µM (inactive),2.58 µM (inactive),2.34 µM (inactive),1.61 µM (inactive),2.49 µM (inactive),4.81 µM (inactive),1.55 µM (inactive),1.78 µM (inactive),4.97 µM (inactive)
O=C1C(Cl)=C(Nc2ccc(OC(F)(F)F)cc2)C(=O)c2c(O)ccc(O)c21,1.01 µM (active),1.17 µM (inactive),0.719 µM (active),0.445 µM (active),0.46 µM (active),0.959 µM (active),0.726 µM (active),0.519 µM (active),1.5 µM (inactive),0.443 µM (active),0.275 µM (active),0.468 µM (active),1.22 µM (inactive),1.5 µM (inactive),3.87 µM (inactive),1.71 µM (inactive),1.76 µM (inactive),2.11 µM (inactive),0.262 µM (active),0.735 µM (active)
N/C(S)=N/N=C/c1ccc(N)cn1,4.42 µM (inactive),5.73 µM (inactive),> 8.36 µM (inactive),2.43 µM (inactive),3.01 µM (inactive),> 10 µM (inactive),4.06 µM (inactive),3.42 µM (inactive),4.24 µM (inactive),> 6.79 µM (inactive),3.67 µM (inactive),3.92 µM (inactive),3.54 µM (inactive),6.22 µM (inactive),> 8.15 µM (inactive),3.09 µM (inactive),9.06 µM (inactive),2.25 µM (inactive),3.62 µM (inactive),2.4 µM (inactive)
Cc1ccccc1C1=C/C(=C(\SS/C(C(=O)c2ccc(OCC(=O)O)c(Cl)c2Cl)=C2\C=C(c3ccccc3C)SS2)C(=O)c2ccc(OCC(=O)O)c(Cl)c2Cl)SS1,40.1 µM (inactive),51.6 µM (inactive),21.2 µM (inactive),33.3 µM (inactive),31.4 µM (inactive),29.4 µM (inactive),8.43 µM (inactive),22.4 µM (inactive),17.9 µM (inactive),22.6 µM (inactive),24.1 µM (inactive),20.1 µM (inactive),46.9 µM (inactive),22.3 µM (inactive),32.4 µM (inactive),26.4 µM (inactive),51.1 µM (inactive),26.3 µM (inactive),6.82 µM (inactive),34.7 µM (inactive)
